Assay results published in US6313090A, “Methods for treating parasitic infection using thiopeptides” (The United States of America as represented by the …, priority 2000, dated 2001).
Where two headings read alike, the source gives them in different places.

Tested on: C. parvum GCH1 oocysts
Assay: Intact C. parvum oocyst assay on MDBKF5D2 cell monolayers, immunofluorescence
Format: cell-based
Details: for inhibition at 800 µg/mL / inhibition at 100 µg/mL / inhibition at 200 µg/mL / inhibition at 400 µg/mL / inhibition at 1 µg/mL / inhibition at 10 µg/mL / inhibition at 0.1 µg/mL: Cryptosporidium parvum
Description: In vitro doses of drugs. Thiostrepton (Calbiochem) was dissolved in sterile complete Dulbecco's Modified Eagle Medium (DMEM) supplemented with dimethyl sulfoxide (DMSO) at 0.2% and tested at concentrations of 800, 400, 200, and 100, 10, 1 and 0.1 μg/ml.
(§1) Intact C. parvum oocyst asset 3.0×10^4 C. parvum GCH1 oocysts per well were incubated in the above-mentioned concentrations of drug at 37° C. (8% CO2) on confluent MDBKF5D2 cell monolayers in 96 well microtiter plates. The level of infection in each well was determined and analyzed by immunofluorescence assay at 48 hours, using C. parvum sporozoite rabbit anti-serum (0.1%) and fluorescein-conjugated goat anti-rabbit antibody (1.0%). Percent inhibition was calculated by subtracting the mean parasite/drug from the mean parasitelmedium, divided by the mean parasite/medium, all of which was multiplied by 100. The analysis was performed using MCID and an inverted microscope.
In vitro doses of drugs. Thiostrepton (Calbiochem) and Phavic (NTZ) were dissolved in sterile complete Dulbecco's Modified Eagle Medium (DMEM) supplemented with dimethyl sulfoxide (DMSO) at 0.2% and tested at concentrations of 800, 400, 200, and 100 μg/ml. NTZ was tested at concentrations of 100, 10, 1 and 0.1 μg/ml. Paromomycin (Sigma) was dissolved in DMEM and tested at concentrations of 2000, 1000, 500 and 250 μg/ml.
as §1, with “assay .” for “asset”, “plates. For some monolayers, the oocysts were incubated in DMEM on the cell monolayers for four hours, at which time the monolayers were washed and then drug was added to the wells.” for “plates.”, “parasite/medium,” for “parasitelmedium,”
In vitro doses of drugs. Thiostrepton (Calbiochem), Phavic (NTZ) were dissolved in sterile complete Dulbecco's Modified Eagle Medium (DMEM) supplemented with dimethyl sulfoxide (DMSO) at 0.2%. Thiostrepton was tested at a concentration of 800 μg/ml. NTZ was tested at a concentration of 10 μg/ml. Paromomycin was dissolved in DMEM and tested at 2000 μg/ml. Cell monolayers were infected and washed, followed by the addition of drug at time intervals of 0, 2, 4, 8 and 24 hours.
as §1, with “assay.” for “asset”, “analyze” for “analyzed”, “parasite/medium,” for “parasitelmedium,”

SMILES: C=C(NC(=O)C(=C)NC(=O)c1csc(C2=N[C@@H]3c4csc(n4)[C@H]4NC(=O)c5csc(n5)[C@H]([C@](C)(O)[C@@H](C)O)NC(=O)[C@H]5CSC(=N5)/C(=C/C)NC(=O)[C@H]([C@@H](C)O)NC(=O)c5csc(n5)[C@]3(CC2)NC(=O)[C@H](C)NC(=O)C(=C)NC(=O)[C@H](C)NC(=O)[C@H]([C@@H](C)CC)N[C@@H]2C=Cc3c([C@H](C)O)cc(nc3[C@H]2O)C(=O)O[C@@H]4C)n1)C(N)=O [Thiostrepton, thiostrepton]
- inhibition at 800 µg/mL (0 h, read-out: Inhibition Percent, Table 5, 800 μg/ml, drug added at 0 hrs): 91.2%
- inhibition at 800 µg/mL (0 h, read-out: Inhibition Score, Table 5, 800 μg/ml, drug added at 0 hrs): 91 to 100%
- inhibition at 800 µg/mL (2 h, read-out: Inhibition Percent, Table 5, 800 μg/ml, drug added at 2 hrs): 91.8%
- inhibition at 800 µg/mL (2 h, read-out: Inhibition Score, Table 5, 800 μg/ml, drug added at 2 hrs): 91 to 100%
- inhibition at 100 µg/mL (4 h, read-out: Inhibition Percent, Table 4 Washed at 4 hours, 100 μg/ml): 61%
- inhibition at 200 µg/mL (4 h, read-out: Inhibition Percent, Table 4 Washed at 4 hours, 200 μg/ml): 78.7%
- inhibition at 400 µg/mL (4 h, read-out: Inhibition Percent, Table 4 Washed at 4 hours, 400 μg/ml): 88.2%
- inhibition at 800 µg/mL (4 h, read-out: Inhibition Percent, Table 4 Washed at 4 hours, 800 μg/ml): 87.4%
- inhibition at 800 µg/mL (4 h, read-out: Inhibition Percent, Table 5, 800 μg/ml, drug added at 4 hrs): 84.5%
- inhibition at 100 µg/mL (4 h, read-out: Inhibition Score, Table 4 Washed at 4 hours, 100 μg/ml): 56 to 70%
- inhibition at 200 µg/mL (4 h, read-out: Inhibition Score, Table 4 Washed at 4 hours, 200 μg/ml): 71 to 90%
- inhibition at 400 µg/mL (4 h, read-out: Inhibition Score, Table 4 Washed at 4 hours, 400 μg/ml): 71 to 90%
- inhibition at 800 µg/mL (4 h, read-out: Inhibition Score, Table 4 Washed at 4 hours, 800 μg/ml): 71 to 90%
- inhibition at 800 µg/mL (4 h, read-out: Inhibition Score, Table 5, 800 μg/ml, drug added at 4 hrs): 71 to 90%
- inhibition at 800 µg/mL (8 h, read-out: Inhibition Percent, Table 5, 800 μg/ml, drug added at 8 hrs): 84.9%
- inhibition at 800 µg/mL (8 h, read-out: Inhibition Score, Table 5, 800 μg/ml, drug added at 8 hrs): 71 to 90%
- inhibition at 800 µg/mL (24 h, read-out: Inhibition Percent, Table 5, 800 μg/ml, drug added at 24 hrs): 75%
- inhibition at 800 µg/mL (24 h, read-out: Inhibition Score, Table 5, 800 μg/ml, drug added at 24 hrs): 71 to 90%
- inhibition at 1 µg/mL (read-out: Inhibition Percent, Table 1, 1 μg/ml): < 0%
- inhibition at 10 µg/mL (read-out: Inhibition Percent, Table 1, 10 μg/ml): 12.4%
- inhibition at 100 µg/mL (read-out: Inhibition Percent, Table 1, 100 μg/ml): 29.4%
- inhibition at 0.1 µg/mL (read-out: Inhibition Percent, Table 1, .1 μg/ml): < 0%
- inhibition at 100 µg/mL (read-out: Inhibition Percent, Table 2, 100 μg/ml): 22.7%
- inhibition at 200 µg/mL (read-out: Inhibition Percent, Table 2, 200 μg/ml): 51.8%
- inhibition at 400 µg/mL (read-out: Inhibition Percent, Table 2, 400 μg/ml): 72.6%
- inhibition at 800 µg/mL (read-out: Inhibition Percent, Table 2, 800 μg/ml): 87.8%
- inhibition at 100 µg/mL (read-out: Inhibition Percent, Table 3 Unwashed, 100 μg/ml): 35.4%
- inhibition at 200 µg/mL (read-out: Inhibition Percent, Table 3 Unwashed, 200 μg/ml): 68.2%
- inhibition at 400 µg/mL (read-out: Inhibition Percent, Table 3 Unwashed, 400 μg/ml): 87.4%
- inhibition at 800 µg/mL (read-out: Inhibition Percent, Table 3 Unwashed, 800 μg/ml): 91.4%
- inhibition at 100 µg/mL (read-out: Inhibition Percent, Table 6, 100 μg/ml): 36.5%
- inhibition at 200 µg/mL (read-out: Inhibition Percent, Table 6, 200 μg/ml): 65.7%
- inhibition at 400 µg/mL (read-out: Inhibition Percent, Table 6, 400 μg/ml): 79%
- inhibition at 800 µg/mL (read-out: Inhibition Percent, Table 6, 800 μg/ml): 83.7%
- inhibition at 1 µg/mL (read-out: Inhibition Score, Table 1, 1 μg/ml): 0 to 30%
- inhibition at 10 µg/mL (read-out: Inhibition Score, Table 1, 10 μg/ml): 0 to 30%
- inhibition at 100 µg/mL (read-out: Inhibition Score, Table 1, 100 μg/ml): 0 to 30%
- inhibition at 0.1 µg/mL (read-out: Inhibition Score, Table 1, .1 μg/ml): 0 to 30%
- inhibition at 100 µg/mL (read-out: Inhibition Score, Table 2, 100 μg/ml): 0 to 30%
- inhibition at 200 µg/mL (read-out: Inhibition Score, Table 2, 200 μg/ml): 31 to 55%
- inhibition at 400 µg/mL (read-out: Inhibition Score, Table 2, 400 μg/ml): 71 to 90%
- inhibition at 800 µg/mL (read-out: Inhibition Score, Table 2, 800 μg/ml): 71 to 90%
- inhibition at 100 µg/mL (read-out: Inhibition Score, Table 3 Unwashed, 100 μg/ml): 31 to 55%
- inhibition at 200 µg/mL (read-out: Inhibition Score, Table 3 Unwashed, 200 μg/ml): 56 to 70%
- inhibition at 400 µg/mL (read-out: Inhibition Score, Table 3 Unwashed, 400 μg/ml): 71 to 90%
- inhibition at 800 µg/mL (read-out: Inhibition Score, Table 3 Unwashed, 800 μg/ml): 91 to 100%
- inhibition at 100 µg/mL (read-out: Inhibition Score, Table 6, 100 μg/ml): 31 to 55%
- inhibition at 200 µg/mL (read-out: Inhibition Score, Table 6, 200 μg/ml): 56 to 70%
- inhibition at 400 µg/mL (read-out: Inhibition Score, Table 6, 400 μg/ml): 71 to 90%
- inhibition at 800 µg/mL (read-out: Inhibition Score, Table 6, 800 μg/ml): 71 to 90%
- Parasite Count (Table 1, 1 μg/ml): 1193.19
- Parasite Count (Table 1, 10 μg/ml): 909.25
- Parasite Count (Table 1, 100 μg/ml): 732.31
- Parasite Count (Table 1, .1 μg/ml): 1052.13
- Parasite Count (Table 2, 100 μg/ml): 943.31
- Parasite Count (Table 2, 200 μg/ml): 587.81
- Parasite Count (Table 2, 400 μg/ml): 334.06
- Parasite Count (Table 2, 800 μg/ml): 149.25
- Parasite Count (Table 3 Unwashed, 100 μg/ml): 795.63
- Parasite Count (Table 3 Unwashed, 200 μg/ml): 391.19
- Parasite Count (Table 3 Unwashed, 400 μg/ml): 154.88
- Parasite Count (Table 3 Unwashed, 800 μg/ml): 106.06
- Parasite Count (Table 4 Washed at 4 hours, 100 μg/ml): 543.88
- Parasite Count (Table 4 Washed at 4 hours, 200 μg/ml): 297.19
- Parasite Count (Table 4 Washed at 4 hours, 400 μg/ml): 164.31
- Parasite Count (Table 4 Washed at 4 hours, 800 μg/ml): 176.31
- Parasite Count (Table 5, 800 μg/ml, drug added at 0 hrs): 112.44
- Parasite Count (Table 5, 800 μg/ml, drug added at 2 hrs): 104.19
- Parasite Count (Table 5, 800 μg/ml, drug added at 4 hrs): 196.81
- Parasite Count (Table 5, 800 μg/ml, drug added at 8 hrs): 192.56
- Parasite Count (Table 5, 800 μg/ml, drug added at 24 hrs): 318.25
- Parasite Count (Table 6, 100 μg/ml): 871.25
- Parasite Count (Table 6, 200 μg/ml): 470.69
- Parasite Count (Table 6, 400 μg/ml): 288.13
- Parasite Count (Table 6, 800 μg/ml): 223.13
- activity against C. parvum in vitro (concentrations of 200 and above, Tables 1 and 2): good activity
- effectiveness compared with PRM (in vitro, summary statement): more effective than PRM at about one-fifth the dose
- activity when drug is added 24 hours after infection (intracellular stages only): still highly inhibitory
